Data: US20210187077A1, “GLP-1 Agonist Conjugates for Sustained Glycemic Control” (IDAHO STATE UNIVERSITY, priority 2019, published 2021)

Assay: hydroxyapatite (HA) binding in vitro study (bone mineral affinity)
Description: To evaluate the bone mineral affinity of the GLP-1 conjugate described in Example 1, hydroxyapatite (HA) binding in vitro studies were conducted. Briefly, 10 μg of GLP-1 or equivalent amount of GLP-1 conjugate was mixed with 5 mg of HA powder in 500 μL of the binding buffer with various concentrations (double-distilled water (D.D.), 10 mM PBS [pH 7.4], 50 mM PBS [pH 7.4], acetate buffer [pH 4]) . Similarly, tubes containing an equivalent amount of GLP-1 or GLP-1 conjugate in corresponding buffers without HA were used as a negative control. Mixtures were shaken gently at room temperature for 1 hour and then were centrifuged at 10,000 g for 5 minutes. The supernatant was separated and assayed for unbound drug, using a fluorescence spectrometer (λEx 215 nm, λEm 305 nm). The percentage of HA binding was calculated as:
(Intensity of control−the intensity of supernatants)/Intensity of control×100%
Each experiment was measured in triplicate.

H-HAE GTF TSD VSS YLE GQA A-K(Mal-PEGn-BP)-E FIA WLV KGR —NH2 [GLP-1 conjugate]
effect of pH and phosphate ion concentration on HA binding capacity (acidic pH (Acetate buffer pH 4 vs PBS pH 7.4) and lower buffer concentration (10 mM vs 50 mM)): higher binding | binding capacity to HA compared with plain GLP-1 peptide (various medium (D.D. water, 10 mM PBS pH 7.4, 50 mM PBS pH 7.4, acetate buffer pH 4), 5 mg HA, 1 hour, room temperature, p<0.01): significantly different binding capacity to HA
